13 molecules from PubChem BioAssay (NCI) can be followed below.

The structures appear in SMILES notation. Values joined by “and” are separate entries in the source; they are usually repeats but may differ in a detail not shown here. Equal values may be shown once.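 Tested at 5 concentrations; 48 h exposure; 96-well plates; endpoints linearly interpolated, else capped at highest concentration. GI50 = concentration required for 50% inhibition of growth. The concentration for full growth arrest is given as TGI.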

Some test systems named below: SN12C renal; CAKI-1 renal; SK-MEL-2 melanoma; HCC-2998 colon; HOP-62 NSCLC; K-562 leukemia; NCI/ADR-RES ovarian; CCRF-CEM leukemia; UACC-257 melanoma; HS 578T breast.
What all share (experiment): growth of human tumour cells (NCI), 48 h

For the molecule `CC(C)=CC[C@]12CCN(C)[C@H]1N(S(=O)(=O)c1ccccc1)c1ccccc12`, the TGI is greater than 100 µM in the test on SN12C renal; greater than 100 µM with CAKI-1 renal; 55.5 µM with SK-MEL-2 melanoma; greater than 61.4 µM in the test with HCC-2998 colon; greater than 77.6 µM with HOP-62 NSCLC; greater than 100 µM with K-562 leukemia. Further, the TGI in the test on NCI/ADR-RES ovarian is greater than 100 µM; with CCRF-CEM leukemia it was greater than 100 µM; with UACC-257 melanoma it was greater than 89.6 µM; with HS 578T breast it was greater than 90 µM.
`O=C(SCc1cccc2ccccc12)c1ccc(Cl)cc1`: the TGI with SN12C renal, in the test on CAKI-1 renal, with SK-MEL-2 melanoma, in the test on HCC-2998 colon, in the test on HOP-62 NSCLC and in the test on K-562 leukemia was greater than 100 µM throughout. Further, the TGI in the test with NCI/ADR-RES ovarian, in the test with CCRF-CEM leukemia, with UACC-257 melanoma and with HS 578T breast was greater than 100 µM throughout.
`NC(Cc1ccc2nc3c4ccccc4c(=O)cc-3oc2c1)C(=O)O` (stereo not given): the TGI with SN12C renal, with CAKI-1 renal, in the test with SK-MEL-2 melanoma, with HCC-2998 colon, in the test on HOP-62 NSCLC and with K-562 leukemia was greater than 100 µM each time. The TGI in the test on NCI/ADR-RES ovarian, in the test on CCRF-CEM leukemia, in the test with UACC-257 melanoma and with HS 578T breast was greater than 100 µM in each case.
For the molecule `OC1(c2ccc(Cl)cc2)c2ccccc2-c2nc3ccccc3n21` (stereo not given), the TGI with SN12C renal, in the test with CAKI-1 renal, in the test on SK-MEL-2 melanoma, in the test with HCC-2998 colon, with HOP-62 NSCLC and with K-562 leukemia was greater than 100 µM throughout. The TGI in the test with NCI/ADR-RES ovarian, in the test on CCRF-CEM leukemia, in the test with UACC-257 melanoma and in the test with HS 578T breast was greater than 100 µM each time.
Turning to `C[C@]12CC(c3ccccc3O1)C(C(=O)Nc1nc(C34CC5CC(CC(C5)C3)C4)cs1)C(=O)N2` (stereo not given in full), the TGI in the test with SN12C renal, in the test on CAKI-1 renal, with SK-MEL-2 melanoma, in the test on HCC-2998 colon, with HOP-62 NSCLC and in the test on K-562 leukemia was greater than 100 µM in each case. For the same molecule, the TGI with NCI/ADR-RES ovarian, in the test with CCRF-CEM leukemia, with UACC-257 melanoma and with HS 578T breast was greater than 100 µM in each case.
Consider `Cc1nc2sc(C(=O)c3ccc(Cl)cc3)c(N)c2c(-c2ccccc2Cl)c1C(=O)Nc1ccccc1`, for which the TGI in the test on SN12C renal was 42.1 µM; with CAKI-1 renal it was 36.8 µM; in the test on SK-MEL-2 melanoma it was 32.8 µM; in the test on HCC-2998 colon, 59.9 µM; in the test on HOP-62 NSCLC, 37 µM; in the test with K-562 leukemia, greater than 51.8 µM. Moreover, the TGI in the test with NCI/ADR-RES ovarian stood at 60 µM; in the test with CCRF-CEM leukemia, 19.9 µM; in the test with UACC-257 melanoma, 61.8 µM; in the test on HS 578T breast, 48.7 µM.
Take `COC1(CC[C@@H](C)COC2OC(CO)C(O)C(O)C2O)O[C@H]2C[C@H]3[C@@H]4CC=C5C[C@@H](OC6OC(CO)C(O)C(OC7OC(CO)C(O)C(O)C7O)C6OC6OC(C)C(O)C(O)C6O)CC[C@]5(C)[C@H]4CC[C@]3(C)[C@H]2[C@@H]1C` (stereo not given in full): the TGI in the test with SN12C renal is greater than 56 µM; in the test on CAKI-1 renal, 12 µM; with SK-MEL-2 melanoma, 29.2 µM; with HCC-2998 colon, 10.6 µM; with HOP-62 NSCLC, 24.3 µM; in the test on K-562 leukemia, greater than 62.8 µM. The TGI in the test with NCI/ADR-RES ovarian is 33.6 µM; in the test on CCRF-CEM leukemia, greater than 100 µM; in the test with UACC-257 melanoma, 26.3 µM; with HS 578T breast, 22.2 µM.
Take `O=C(O)[C@H](CCC[C@H]1C(=O)O[C@H](c2ccccc2)[C@H](c2ccccc2)N1C(=O)OCc1ccccc1)N[C@@H](c1ccccc1)[C@H](O)c1ccccc1`: the TGI is 42.1 µM with SN12C renal; greater than 100 µM with CAKI-1 renal; 40.8 µM in the test with SK-MEL-2 melanoma; 44 µM in the test with HCC-2998 colon; 39 µM in the test with HOP-62 NSCLC; greater than 100 µM in the test on K-562 leukemia. The TGI with NCI/ADR-RES ovarian is greater than 100 µM; in the test on CCRF-CEM leukemia, 46.4 µM; in the test on UACC-257 melanoma it was greater than 100 µM; in the test on HS 578T breast, 58.9 µM.
Consider `COC(=O)C1(SC)C2CCC3C2CCC31` (stereo not given), for which the TGI in the test on SN12C renal, in the test with CAKI-1 renal, with SK-MEL-2 melanoma, in the test with HCC-2998 colon, in the test on HOP-62 NSCLC and in the test with K-562 leukemia was greater than 100 µM each time. Also, the TGI in the test with NCI/ADR-RES ovarian, in the test on CCRF-CEM leukemia, in the test on UACC-257 melanoma and with HS 578T breast was greater than 100 µM each time.
Regarding `O=c1[nH]c(NCc2ccc(Cl)cc2)nc2nc[nH]c12`, the TGI in the test on SN12C renal, with CAKI-1 renal, with SK-MEL-2 melanoma, with HCC-2998 colon, with HOP-62 NSCLC and with K-562 leukemia was greater than 100 µM each time. The TGI in the test on NCI/ADR-RES ovarian, in the test with CCRF-CEM leukemia, with UACC-257 melanoma and in the test with HS 578T breast was greater than 100 µM throughout.
For the molecule `CC(Oc1ccccc1)C(=O)NNC(=O)OC(C)(C)C` (stereo not given), the TGI in the test on SN12C renal, in the test with CAKI-1 renal, with SK-MEL-2 melanoma, in the test on HCC-2998 colon, in the test with HOP-62 NSCLC and in the test on K-562 leukemia was greater than 100 µM each time. The TGI in the test on NCI/ADR-RES ovarian, in the test with CCRF-CEM leukemia, in the test on UACC-257 melanoma and with HS 578T breast was greater than 100 µM throughout.
On to `CC(=O)OCC1OC(n2c(S)c(C#N)c(-c3ccccc3)c(C#N)c2=O)C(OC(C)=O)C(OC(C)=O)C1OC(C)=O` (stereo not given), for which the GI50 in the test with SN12C renal was > 100 µM and 25.2 µM; in the test on SK-MEL-2 melanoma, > 61.6 µM and 13.6 µM; in the test on HCC-2998 colon it was > 100 µM and 18 µM; in the test on CCRF-CEM leukemia, > 100 µM and 43.1 µM; in the test with UACC-257 melanoma it was > 100 µM and 36.2 µM. For the same molecule, the TGI in the test with SN12C renal is > 100 µM and 81.7 µM; in the test with CAKI-1 renal, greater than 100 µM; with SK-MEL-2 melanoma it was > 100 µM and 31.8 µM; with HCC-2998 colon, > 100 µM and 32.9 µM; with HOP-62 NSCLC, 52.9 µM and 75.7 µM; with K-562 leukemia, greater than 100 µM. Further, the TGI in the test on NCI/ADR-RES ovarian is greater than 100 µM; with CCRF-CEM leukemia it was > 100 µM and 96.7 µM; in the test with UACC-257 melanoma it was > 100 µM and 81.4 µM; with HS 578T breast, greater than 100 µM.
For the molecule `C(=Nc1ccc(-c2nc3ccccc3s2)cc1)c1ccc[nH]1`, the TGI with SN12C renal worked out at 44.8 µM; in the test with CAKI-1 renal, 78.3 µM; in the test with SK-MEL-2 melanoma, 32 µM; in the test with HCC-2998 colon, 31.9 µM; with HOP-62 NSCLC, 27.6 µM; with K-562 leukemia, 66.6 µM. Moreover, the TGI in the test with NCI/ADR-RES ovarian worked out at 44.6 µM; in the test with CCRF-CEM leukemia, 57.4 µM; in the test on UACC-257 melanoma it was 31.2 µM; in the test on HS 578T breast it was 53.4 µM.
